We go through ten compounds from patent publication EP3034496A1, “NOVEL SOLVATES OF N-[2-[(1S)-1-(3-ETHOXY-4-METHOXYPHENYL)-2-(METHYLSULFONYL)ETHYL]-2,3-DIHYDRO-1,3-DIOXO-1H-ISOINDOL-4-YL]ACETAMIDE” (LEK Pharmaceuticals d.d., priority 2014, dated 2016).

The conditions of data set [1]: 90th percentile of the particle size distribution as measured by length, from WO 2009/120167 A1, cited from earlier work.
For data set [2] the following is noted: cited from earlier work; for solubility in H2O: value of the organic solvent incorporated into the crystal structure, not of the crystal form.
A short description of data set [3]: gravimetric moisture sorption desorption isotherm. Particulars: 0 to 95% relative humidity, (25.0 ± 0.1) °C. The data set is classed as physicochemical. The procedure: Gravimetric moisture sorption desorption isotherm was acquired using a SPS-11 moisture sorption analyzer (MD Messtechnik, Ulm, D). The sample was weighed into an Aluminium sample holder. […] The water content of the samples was determined after the moisture sorption/ desorption experiments with a TGA 7 system (Perkin Elmer, Norwalk, Ct., USA) using the Pyris 2.0 software according to the above described method.

Where two headings read alike, the source gives them in different places.

For the compound `CCOc1cc([C@@H](CS(C)(=O)=O)N2C(=O)c3cccc(NC(C)=O)c3C2=O)ccc1OC` [Form C, N-[2-[(1S)-1-(3-ethoxy-4-methoxyphenyl)-2-(methylsulfonyl)ethyl]-2,3-dihydro-1,3-dioxo-1H-isoindol-4-yl]acetamide], the D90 in data set [1] (listed as C) was less than 12 microm.
`CCOc1cc([C@@H](CS(C)(=O)=O)N2C(=O)c3cccc(NC(C)=O)c3C2=O)ccc1OC` [Form D, N-[2-[(1S)-1-(3-ethoxy-4-methoxyphenyl)-2-(methylsulfonyl)ethyl]-2,3-dihydro-1,3-dioxo-1H-isoindol-4-yl]acetamide]: in data set [1] (listed as D), the D90 is less than 18 microm.
With `CCOc1cc([C@@H](CS(C)(=O)=O)N2C(=O)c3cccc(NC(C)=O)c3C2=O)ccc1OC` [Form E, N-[2-[(1S)-1-(3-ethoxy-4-methoxyphenyl)-2-(methylsulfonyl)ethyl]-2,3-dihydro-1,3-dioxo-1H-isoindol-4-yl]acetamide], the D90 in data set [1] (listed as E) is given as less than 18 microm.
Regarding `CCOc1cc([C@@H](CS(C)(=O)=O)N2C(=O)c3cccc(NC(C)=O)c3C2=O)ccc1OC` [Form G, N-[2-[(1S)-1-(3-ethoxy-4-methoxyphenyl)-2-(methylsulfonyl)ethyl]-2,3-dihydro-1,3-dioxo-1H-isoindol-4-yl]acetamide], the D90 in data set [1] (listed as G) was less than 18 microm.
With `CC(C)=O` [acetone], in data set [2] (organic solvent), the “solubility in water (in words)” value was “freely soluble in water”. Further, the “solubility in H2O” value in data set [2] is given as 100 %w/w.
Take `CC#N` [acetonitrile]: the “solubility in H2O” value in data set [2] is given as 100 %w/w.
Regarding `CCO` [ethanol], the “solubility in water (in words)” value in data set [2] (organic solvent) was “freely soluble in water”. Besides, in data set [2], the “solubility in H2O” value is on record as 100 %w/w.
With `CCOC(C)=O` [ethyl acetate], the “aqueous solubility / water solubility” value in data set [2] (organic solvent) is listed as 8.7 % w/w. The “solubility in H2O” value in data set [2] is given as 8.7 %w/w.
`ClCCl` [methylene chloride]: the “solubility in H2O” value in data set [2] is 1.6 %w/w.
In the case of “N-[2-[(1S)-1-(3-ethoxy-4-methoxyphenyl)-2-(methylsulfonyl)ethyl]-2,3-dihydro-1,3-dioxo-1H-isoindol-4-yl]acetamide ethanol solvate”, in data set [3], the hygroscopicity result is “non-hygroscopic (compounds showing a mass change of less than 2 weight% based on the weight of the compound in the range of from 0 to 95% relative humidity at (25.0 ± 0.1) °C)”. In data set [3] (based on the weight of the crystalline ethanol solvate), the mass change entry is “less than 0.5 % w/w”.
